Broadly, the IC50 is the concentration that gives 50% inhibition. By ΔTm is commonly meant the change in melting temperature against a reference sample. As usually defined, the inhibition is the relative decrease from the control value, in per cent. What is called MIC is the lowest concentration found to suppress growth. A high value points to weaker potency. The term Kd denotes the equilibrium constant for the complex coming apart. A higher Kd goes with weaker binding.

Values after ≈ are worked out from the molar mass of the structure shown. Some results are limits rather than exact numbers.

A short description of experiment [1]: Inhibition of Salmonella enterica Threonyl-tRNA synthetase assessed as reduction in aminoacylation activity using L-threonine as substrate in presence of incubated for 3 hrs by Kinase-glo luminescence assay. In general terms: Kinase-Glo measures the ATP left after a reaction by luminescence.
In experiment [2] the test system is Salmonella enterica. The experiment can be described thus: Binding affinity to Salmonella enterica Threonyl-tRNA synthetase assessed as change in melting temperature at 0.5 mM incubated for 10 mins by SYPRO orange dye-based thermal shift assay.
For experiment [3], the system named is Salmonella enterica. Nature of the experiment: Inhibition of Salmonella enterica Threonyl-tRNA synthetase assessed as reduction in aminoacylation activity at 100 uM using L-threonine as substrate incubated for 3 hrs by Kinase-glo luminescence assay relative to control.
The test system of experiment [4] is Escherichia coli. Nature of the experiment: Antibacterial activity against Escherichia coli ATCC 25922 by visual method. The experiment is classed as functional.
For experiment [5], the system named is Salmonella enterica. The experiment can be described thus: Antibacterial activity against Salmonella enterica 87 by visual method. In kind it is functional.
For experiment [6], the system named is Pseudomonas aeruginosa. Nature of the experiment: Antibacterial activity against Pseudomonas aeruginosa ATCC 27853 by visual method. The experiment is classed as functional.
Experiment [7] relates to Staphylococcus aureus. Nature of the experiment: Antibacterial activity against Staphylococcus aureus ATCC 29213 by visual method. The experiment is classed as functional.
The test system of experiment [8] is Staphylococcus aureus. The experiment can be described thus: Antibacterial activity against methicillin-resistant Staphylococcus aureus R3708 by visual method. In kind it is functional.
The subject of experiment [9] is Enterococcus faecalis. The experiment can be described thus: Antibacterial activity against Enterococcus faecalis ATCC 29212 by visual method. The experiment is classed as functional.
Experiment [10] is described as follows: Binding affinity to Salmonella enterica Threonyl-tRNA synthetase at 200 uM by isothermal titration calorimetry. (In general: ITC needs no label: the signal is the heat of the interaction.)

For the molecule `C[C@@H](O)[C@H](N)C(=O)OC/C=C/Cn1cnc2cc(Br)c(Cl)cc2c1=O`, the IC50 in experiment [1] was found to be 9.6 µM. The ΔTm in experiment [2] was determined as 15.7 °C. Besides, the inhibition in [3] came out at 96%.
For `C[C@@H](O)[C@H](N)C(=O)OCCCCn1cnc2cc(Br)c(Cl)cc2c1=O`, the ΔTm in experiment [2] came to 10.2 °C. Also, in experiment [3], the inhibition stood at 42%.
With `C[C@@H](O)[C@H](N)C(=O)NC/C=C/Cn1cnc2cc(Cl)c([N+](=O)[O-])cc2c1=O`, in experiment [2], the ΔTm is 0.5 °C. For the same molecule, in experiment [3], the inhibition was determined as 0%.
For `Cc1cc2ncn(C/C=C/CNC(=O)[C@@H](N)[C@@H](C)O)c(=O)c2cc1C`, the ΔTm in experiment [2] is 10.6 °C. In experiment [3], the inhibition came to 7%.
On the same counts, the results for `C[C@@H](O)[C@H](N)C(=O)NC/C=C/Cn1cnc2cc(C(F)(F)F)ccc2c1=O` are 11.9 °C and 21%.
Consider `C[C@@H](O)[C@H](N)C(=O)OCCCn1cnc2cc(Br)c(Cl)cc2c1=O`, for which the ΔTm in experiment [2] came to 7.5 °C. For the same molecule, the inhibition in [3] was found to be 0%.
As for `C[C@@H](O)[C@H](N)C(=O)NC/C=C/Cn1cnc2cc(Cl)c(F)cc2c1=O`, the IC50 in [1] is 9.7 µM. Besides, the ΔTm in [2] stood at 18.8 °C. Moreover, the inhibition in experiment [3] was 93%.
Take `C[C@@H](O)[C@H](N)C(=O)NC/C=C/Cn1cnc2cc3ccccc3cc2c1=O`: in experiment [1], the IC50 turned out to be 55.5 µM. The thermal shift (ΔTm) in experiment [2] stood at 16.9 °C. Further, the inhibition in experiment [3] was found to be 70%.
Regarding `CC1(C)S[C@@H]2[C@H](NC(=O)[C@H](N)c3ccccc3)C(=O)N2[C@H]1C(=O)O` [AMPICILLIN], the minimum inhibitory concentration (MIC) in experiment [4], in experiment [5] and in [6] was 1 µg/mL (≈ 2.86 µM) in each case.
Turning to `C[C@@H](O)[C@H](N)C(=O)NC/C=C/Cn1cnc2cnc(Cl)cc2c1=O`, the half-inhibitory concentration (IC50) in experiment [1] was 49.7 µM. For the same molecule, in [2], the ΔTm is 14.9 °C. Further, the inhibition in [3] was found to be 68%.
As to `C[C@@H](O)[C@H](N)C(=O)NC/C=C/Cn1cnc2cc3c(cc2c1=O)OCCO3`, the thermal shift (ΔTm) in experiment [2] is 0.6 °C. Besides, the inhibition in experiment [3] stood at 0%.
On the same counts, the results for `C[C@@H](O)[C@H](N)C(=O)N1CCC(C(=O)Cn2cnc3cc(Br)c(Cl)cc3c2=O)CC1` are 0 °C and 0%.
Take `C[C@@H](O)[C@H](N)C(=O)OCCCCCn1cnc2cc(Br)c(Cl)cc2c1=O`: the ΔTm in [2] was found to be 9.8 °C. Further, in [3], the inhibition was determined as 30%.
Turning to `C[C@@H](O)[C@H](N)C(=O)OCCCCCCn1cnc2cc(Br)c(Cl)cc2c1=O`, the ΔTm in experiment [2] worked out at 9.9 °C. For the same molecule, the inhibition in experiment [3] was 32%.
For `C[C@@H](O)[C@H](N)C(=O)NS(=O)(=O)c1cccc(-c2ccc3[nH]ncc3c2)c1`, the MIC in experiment [7], in experiment [4], in experiment [5], in experiment [8], in [6] and in experiment [9] was more than 256 µg/mL throughout. Moreover, in experiment [1], the IC50 was 0.13 µM. The shift in melting temperature (ΔTm) in experiment [2] was determined as 29.5 °C. The inhibition in experiment [3] came to 100%.
Consider `C[C@@H](O)[C@H](N)C(=O)NC/C=C/Cn1cnc2cc3c(cc2c1=O)OCO3`, for which, in [2], the thermal shift (ΔTm) is 9.5 °C. Further, in experiment [3], the inhibition was determined as 5%.
On to `C[C@@H](O)[C@H](N)C(=O)NC/C=C/Cn1cnc2cc(Cl)c(Cl)cc2c1=O`, for which the MIC in [7] came to 32 µg/mL (≈ 83.1 µM); in experiment [4], 16 µg/mL (≈ 41.5 µM); in experiment [5], 16 µg/mL (≈ 41.5 µM); in experiment [8], 32 µg/mL (≈ 83.1 µM); in experiment [6] it was 32 µg/mL (≈ 83.1 µM); in experiment [9], 32 µg/mL (≈ 83.1 µM). The molecule also gave a Kd in [10] of 1.36 µM. For the same molecule, the IC50 in [1] turned out to be 1.4 µM. Besides, the ΔTm in experiment [2] came to 23.7 °C. Further, the inhibition in experiment [3] was found to be 101%.
As for `COc1cc2c(=O)n(C/C=C/CNC(=O)[C@@H](N)[C@@H](C)O)cnc2cn1`, the ΔTm in experiment [2] stood at 9.6 °C. Further, the inhibition in experiment [3] turned out to be 17%.
In the case of `CN[C@H](CC(C)C)C(=O)N[C@H]1C(=O)N[C@@H](CC(N)=O)C(=O)N[C@H]2C(=O)N[C@H]3C(=O)N[C@H](C(=O)N[C@H](C(=O)O)c4cc(O)cc(O)c4-c4cc3ccc4O)[C@H](O)c3ccc(c(Cl)c3)Oc3cc2cc(c3O[C@@H]2O[C@H](CO)[C@@H](O)[C@H](O)[C@H]2O[C@H]2C[C@](C)(N)[C@H](O)[C@H](C)O2)Oc2ccc(cc2Cl)[C@H]1O` [VANCOMYCIN], in experiment [9], the MIC is 2 µg/mL (≈ 1.38 µM).
On to `COc1cc2ncn(C/C=C/CNC(=O)[C@@H](N)[C@@H](C)O)c(=O)c2cc1OC`, for which the shift in melting temperature (ΔTm) in experiment [2] amounted to 1.5 °C. Also, in experiment [3], the inhibition amounted to 0%.
As to `O=C(CC1NCCCC1O)Cn1cnc2cc(Br)c(Cl)cc2c1=O` (stereo unspecified) [HALOFUGINONE], the MIC in [7] stood at 64 µg/mL (≈ 154 µM); in [4], 64 µg/mL (≈ 154 µM); in experiment [5], 64 µg/mL (≈ 154 µM); in [8], 64 µg/mL (≈ 154 µM); in experiment [6] it was 64 µg/mL (≈ 154 µM); in experiment [9], 128 µg/mL (≈ 309 µM). Moreover, the ΔTm in [2] was -1.4 °C. The inhibition in experiment [3] turned out to be 5%.
For the molecule `C[C@@H](O)[C@H](N)C(=O)N1CCC(Cn2cnc3cc(Br)c(Cl)cc3c2=O)CC1`, in experiment [2], the ΔTm stood at 12.4 °C. Besides, the inhibition in experiment [3] is 23%.
As for `C[C@@H](O)[C@H](N)C(=O)NC/C=C/Cn1cnc2ccccc2c1=O`, the shift in melting temperature (ΔTm) in experiment [2] came out at 9.2 °C. Further, the inhibition in experiment [3] was 15%.
On the same counts, the results for `C[C@@H](O)[C@H](N)C(=O)NC/C=C/Cn1cnc2cnc(F)cc2c1=O` are 12 °C and 36%.
With `C[C@@H](O)[C@H](N)C(=O)NC/C=C/Cn1cnc2cc(F)c(F)cc2c1=O`, in [1], the IC50 is 39.4 µM. The ΔTm in experiment [2] came to 17.2 °C. Moreover, the inhibition in experiment [3] worked out at 77%.
Regarding `C[C@@H](O)[C@H](N)C(=O)NC/C=C/Cn1cnc2cc(Cl)ncc2c1=O`, the thermal shift (ΔTm) in [2] came out at 8.6 °C. Also, the inhibition in [3] turned out to be 34%.
For the molecule `C[C@@H](O)[C@H](N)C(=O)NC/C=C/Cn1cnc2cc(Br)c(Cl)cc2c1=O`, the minimum inhibitory concentration (MIC) in [7] stood at 32 µg/mL (≈ 74.5 µM); in experiment [4], 32 µg/mL (≈ 74.5 µM); in experiment [5], 16 µg/mL (≈ 37.2 µM); in experiment [8] it was 64 µg/mL (≈ 149 µM); in experiment [6], 32 µg/mL (≈ 74.5 µM); in experiment [9], 64 µg/mL (≈ 149 µM). Moreover, the IC50 in experiment [1] turned out to be 3.2 µM. Also, the ΔTm in experiment [2] was found to be 22.5 °C. In addition, in experiment [3], the inhibition was 99%.
With `C[C@@H](O)[C@H](N)C(=O)NCCCCCCn1cnc2cc(Br)c(Cl)cc2c1=O`, in [1], the half-maximal inhibitory concentration (IC50) came to 7.3 µM. Also, in experiment [2], the ΔTm was 12.4 °C. For the same molecule, the inhibition in experiment [3] was determined as 96%.
Turning to `C[C@@H](O)[C@H](N)C(=O)NC/C=C/Cn1cnc2cc(Br)c(Br)cc2c1=O`, the IC50 in experiment [1] stood at 2.4 µM. For the same molecule, in [2], the shift in melting temperature (ΔTm) was 20.3 °C. The inhibition in experiment [3] turned out to be 100%.
For the molecule `C[C@@H](O)[C@H](N)C(=O)NCCCCCn1cnc2cc(Br)c(Cl)cc2c1=O`, in [1], the IC50 was determined as 29.7 µM. Moreover, the thermal shift (ΔTm) in [2] was determined as 14 °C. For the same molecule, the inhibition in experiment [3] stood at 87%.

The values above are taken from ChEMBL document CHEMBL4402548, “Discovery of novel tRNA-amino acid dual-site inhibitors against threonyl-tRNA synthetase by fragment-based target hopping” (Eur J Med Chem, 2020).
